Read-outs that look alike come from different tables or passages of the source.
Tests used:
Experiment in all cases: MIC, broth microdilution (CLSI), substance alone or ATB combined with compound at 4 or 8 μg/mL
ECL P99 = format: cell-based, E. cloacae; conditions: for MIC: Enterobacter cloacae
Summary of the method: (§1)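 Broth microdilution; ca-MHB; 5·10^5 CFU/mL; 35° C, 16-20 h; compound alone or fixed 4/8 μg/mL with antibiotic series; endpoint = no visible growth.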

PAE 105250 = format: cell-based, P. aeruginosa; conditions: PAE 105250
Summary of the method: as §1

PAE UFR48 = format: cell-based, P. aeruginosa; conditions: PAE UFR48
Summary of the method: as §1

PAE UFR90 = format: cell-based, P. aeruginosa; conditions: PAE UFR90
Summary of the method: as §1

SAU 29213 = format: cell-based, S. aureus; conditions: SAU 29213
Summary of the method: as §1

SPN 49619 = format: cell-based, S. pneumoniae; conditions: SPN 49619
Summary of the method: as §1

[1] = Pseudomonas aeruginosa, antibiotic alone, read-out: MIC ATB alone

In the case of `C=CC1=C(C(=O)O)N2C(=O)[C@@H](NC(=O)/C(=N\OCC(=O)O)c3csc(N)n3)[C@H]2SC1` [FIX, Cefixime, reference compound], the “MIC ATB combined with Example 9 @4 μg/ml” value (ECL P99; ECL P99, with Example 9 at 4 μg/ml) is reported as <0.031 µg/mL, the “MIC ATB combined with Example 11 @8 μg/ml” value (ECL P99; ECL P99, with Example 11 at 8 μg/ml) is reported as <0.031 µg/mL and the “MIC ATB combined with Example 12 @8 μg/ml” value (ECL P99; ECL P99, with Example 12 at 8 μg/ml) is reported as <0.031 µg/mL. The “MIC ATB combined with Example 13 @8 μg/ml” value (ECL P99; ECL P99, with Example 13 at 8 μg/ml) was 8 µg/mL, the “MIC ATB combined with Example 14 @8 μg/ml” value (ECL P99; ECL P99, with Example 14 at 8 μg/ml) was <0.031 µg/mL and the “MIC ATB combined with Example 15 @4 μgml” value (ECL P99; ECL P99, with Example 15 at 4 μg/ml) was <0.031 µg/mL. The “MIC ATB combined with Example 16 @4 μg/ml” value (ECL P99; ECL P99, with Example 16 at 4 μg/ml) was <0.031 µg/mL, the MIC (ECL P99) was > 128 µg/mL and the MIC (ECL P99; ECL P99, antibiotic alone, read-out: MIC ATB alone) was > 512 µg/mL. The “MIC ATB combined with Example 1 @8 μg/ml” value (PAE 105250; with Example 1 @8 μg/ml) was <0.031 µg/mL, the “MIC ATB combined with Example 1 @8 μg/ml” value (PAE 105250; with Example 1 at 8 μg/ml) was <0.031 µg/mL and the “MIC ATB combined with Example 7 @8 μgml” value (PAE 105250; with Example 7 at 8 μg/ml) was >32 µg/mL. For the same molecule, the “MIC ATB combined with Example 9 @4 μg/ml” value (PAE 105250; with Example 9 @4 μg/ml) was >32 µg/mL, the “MIC ATB combined with Example 9 @4 μg/ml” value (PAE 105250; with Example 9 at 4 μg/ml) was >32 µg/mL and the “MIC ATB combined with Example 11 @8 μg/ml” value (PAE 105250; with Example 11 at 8 μg/ml) was >32 µg/mL. The “MIC ATB combined with Example 12 @8 μg/ml” value (PAE 105250; with Example 12 at 8 μg/ml) was >32 µg/mL, the “MIC ATB combined with Example 13 @8 μg/ml” value (PAE 105250; with Example 13 at 8 μg/ml) was >32 µg/mL and the “MIC ATB combined with Example 14 @8 μg/ml” value (PAE 105250; with Example 14 at 8 μg/ml) was >32 µg/mL. For the same molecule, the “MIC ATB combined with Example 15 @4 μgml” value (PAE 105250; with Example 15 at 4 μg/ml) was >32 µg/mL, the “MIC ATB combined with Example 16 @4 μg/ml” value (PAE 105250; with Example 16 at 4 μg/ml) was >32 µg/mL and the MIC (PAE 105250; [1]) was > 512 µg/mL. For the same molecule, the “MIC ATB combined with Example 1 @8 μg/ml” value (PAE UFR48; with Example 1 @8 μg/ml) was <0.031 µg/mL, the “MIC ATB combined with Example 1 @8 μg/ml” value (PAE UFR48; with Example 1 at 8 μg/ml) was <0.031 µg/mL and the “MIC ATB combined with Example 7 @8 μgml” value (PAE UFR48; with Example 7 at 8 μg/ml) was >32 µg/mL. For the same molecule, the “MIC ATB combined with Example 9 @4 μg/ml” value (PAE UFR48; with Example 9 @4 μg/ml) was >32 µg/mL, the “MIC ATB combined with Example 9 @4 μg/ml” value (PAE UFR48; with Example 9 at 4 μg/ml) was >32 µg/mL and the “MIC ATB combined with Example 11 @8 μg/ml” value (PAE UFR48; with Example 11 at 8 μg/ml) was >32 µg/mL. The “MIC ATB combined with Example 12 @8 μg/ml” value (PAE UFR48; with Example 12 at 8 μg/ml) was >32 µg/mL, the “MIC ATB combined with Example 13 @8 μg/ml” value (PAE UFR48; with Example 13 at 8 μg/ml) was >32 µg/mL and the “MIC ATB combined with Example 14 @8 μg/ml” value (PAE UFR48; with Example 14 at 8 μg/ml) was >32 µg/mL. For the same molecule, the “MIC ATB combined with Example 15 @4 μgml” value (PAE UFR48; with Example 15 at 4 μg/ml) was >32 µg/mL, the “MIC ATB combined with Example 16 @4 μg/ml” value (PAE UFR48; with Example 16 at 4 μg/ml) was >32 µg/mL and the MIC (PAE UFR48; [1]) was > 512 µg/mL. The “MIC ATB combined with Example 1 @8 μg/ml” value (PAE UFR90; with Example 1 @8 μg/ml) was <0.031 µg/mL, the “MIC ATB combined with Example 1 @8 μg/ml” value (PAE UFR90; with Example 1 at 8 μg/ml) was <0.031 µg/mL and the “MIC ATB combined with Example 7 @8 μgml” value (PAE UFR90; with Example 7 at 8 μg/ml) was >32 µg/mL. The “MIC ATB combined with Example 9 @4 μg/ml” value (PAE UFR90; with Example 9 @4 μg/ml) was >32 µg/mL, the “MIC ATB combined with Example 9 @4 μg/ml” value (PAE UFR90; with Example 9 at 4 μg/ml) was >32 µg/mL and the “MIC ATB combined with Example 11 @8 μg/ml” value (PAE UFR90; with Example 11 at 8 μg/ml) was >32 µg/mL. The “MIC ATB combined with Example 12 @8 μg/ml” value (PAE UFR90; with Example 12 at 8 μg/ml) was >32 µg/mL, the “MIC ATB combined with Example 13 @8 μg/ml” value (PAE UFR90; with Example 13 at 8 μg/ml) was >32 µg/mL and the “MIC ATB combined with Example 14 @8 μg/ml” value (PAE UFR90; with Example 14 at 8 μg/ml) was >32 µg/mL. For the same molecule, the “MIC ATB combined with Example 15 @4 μgml” value (PAE UFR90; with Example 15 at 4 μg/ml) was >32 µg/mL, the “MIC ATB combined with Example 16 @4 μg/ml” value (PAE UFR90; with Example 16 at 4 μg/ml) was >32 µg/mL and the MIC (PAE UFR90; [1]) was > 32 µg/mL. The “MIC ATB combined with Example 1 @8 μg/ml” value (SAU 29213; with Example 1 @8 μg/ml) was 16 µg/mL, the “MIC ATB combined with Example 1 @8 μg/ml” value (SAU 29213; with Example 1 at 8 μg/ml) was 16 µg/mL and the “MIC ATB combined with Example 7 @8 μgml” value (SAU 29213; with Example 7 at 8 μg/ml) was 8 µg/mL. The “MIC ATB combined with Example 9 @4 μg/ml” value (SAU 29213; with Example 9 @4 μg/ml) was “<=0.031 μg/mL”, the “MIC ATB combined with Example 9 @4 μg/ml” value (SAU 29213; with Example 9 at 4 μg/ml) was “<=0.031 μg/mL” and the “MIC ATB combined with Example 11 @8 μg/ml” value (SAU 29213; with Example 11 at 8 μg/ml) was 0.125 µg/mL. The “MIC ATB combined with Example 12 @8 μg/ml” value (SAU 29213; with Example 12 at 8 μg/ml) was <0.031 µg/mL, the “MIC ATB combined with Example 13 @8 μg/ml” value (SAU 29213; with Example 13 at 8 μg/ml) was 4 µg/mL and the “MIC ATB combined with Example 14 @8 μg/ml” value (SAU 29213; with Example 14 at 8 μg/ml) was <0.031 µg/mL. For the same molecule, the “MIC ATB combined with Example 15 @4 μgml” value (SAU 29213; with Example 15 at 4 μg/ml) was <0.031 µg/mL, the “MIC ATB combined with Example 16 @4 μg/ml” value (SAU 29213; with Example 16 at 4 μg/ml) was <0.031 µg/mL and the MIC (SAU 29213; Staphylococcus aureus, antibiotic alone, read-out: MIC ATB alone) was 16 µg/mL. The “MIC ATB combined with Example 1 @8 μg/ml” value (SPN 49619; with Example 1 @8 μg/ml) was 1 µg/mL, the “MIC ATB combined with Example 1 @8 μg/ml” value (SPN 49619; with Example 1 at 8 μg/ml) was 1 µg/mL and the “MIC ATB combined with Example 7 @8 μgml” value (SPN 49619; with Example 7 at 8 μg/ml) was 1 µg/mL. The “MIC ATB combined with Example 9 @4 μg/ml” value (SPN 49619; with Example 9 @4 μg/ml) was 0.25 µg/mL, the “MIC ATB combined with Example 9 @4 μg/ml” value (SPN 49619; with Example 9 at 4 μg/ml) was 0.25 µg/mL and the “MIC ATB combined with Example 11 @8 μg/ml” value (SPN 49619; with Example 11 at 8 μg/ml) was 0.25 µg/mL. For the same molecule, the “MIC ATB combined with Example 12 @8 μg/ml” value (SPN 49619; with Example 12 at 8 μg/ml) was <0.031 µg/mL, the “MIC ATB combined with Example 13 @8 μg/ml” value (SPN 49619; with Example 13 at 8 μg/ml) was 0.5 µg/mL and the “MIC ATB combined with Example 14 @8 μg/ml” value (SPN 49619; with Example 14 at 8 μg/ml) was <0.031 µg/mL. For the same molecule, the “MIC ATB combined with Example 15 @4 μgml” value (SPN 49619; with Example 15 at 4 μg/ml) was 0.25 µg/mL, the “MIC ATB combined with Example 16 @4 μg/ml” value (SPN 49619; with Example 16 at 4 μg/ml) was <0.031 µg/mL and the MIC (SPN 49619; Streptococcus pneumoniae, antibiotic alone, read-out: MIC ATB alone) was 1 µg/mL.

Reference: patent US20200024278A1, “COMPOSITION COMPRISING ANTIBIOTIC COMPOUND AND AN HETEROCYCLIC COMPOUND AND THEIR USE IN PREVENTING OR TREATING BACTERIAL INFECTIONS” (MUTABILIS, priority 2016, published 2020)
